By melting point is commonly meant the temperature, or range, at which the solid turns liquid.

These results are taken from a melting point compilation (Tetko et al.; mined from patent text by program, amines drawn as free bases though some values may be those of a salt).

`CCCCCCCCCCCCCCCCSCC(CN)NC(=O)OC(C)(C)C` (stereo unspecified): the melting point lay within 46 to 47 °C.

As for `CC1(Br)COc2ccc(C#N)cc21` (stereo unspecified), the melting point was 163 to 165 °C.

Take `CON(C)C(=O)CCCCCCNC(=O)c1cn2c3c(cccc13)CCC2`: the melting point lay in the range of 61 to 62 °C.

Take `O=C1COc2cc3c(cc21)C1(CO3)C(=O)N(CC2CCCO2)c2ccccc21` (stereo unspecified): the melting point is 142 to 144 °C.

As for `CSc1ccc(-c2nn(Cc3ccc(Cl)cc3Cl)c(=S)cc2-c2ccc(Cl)cc2)cc1`, the melting point was 183 °C.

In turn, `Cc1cc2c(cc1O)C(C)(C)CC1(CC(C)(C)c3cc(OCCCn4cccn4)c(C)cc3O1)O2` (stereo unspecified) returned a melting point of 239 to 241 °C.

`CC(C)c1cc(C=C2Sc3ccccc3N(Cc3nnn[nH]3)C2=O)cc(C(C)C)c1O` yielded a melting point of 189 to 190 °C.

In turn, `CCN1CN2C(=N1)C(c1ccccc1Cl)=NCC1=C2S(=O)C(C(=O)NC)C1` (stereo unspecified) gave a melting point of 193 to 194 °C.

Take `CC(CCC(=O)NC(C)(C)CO)C1CCC2C3C(=O)CC4CC(O)CCC4(C)C3CCC12C` (stereo unspecified): the melting point was in the range of 220 to 222 °C.

`N#Cc1ccc(N(Cc2ccc(O)c(Br)c2)n2cnnc2)cc1-c1cc2ccccc2o1` registered a melting point of 147 to 148 °C.

`CNc1nc(Cl)ncc1[N+](=O)[O-]`: the melting point fell in the range of 90 to 91 °C.

In turn, `CC(C#Cc1ccc(Oc2cccnc2)o1)N(O)C(N)=O` (stereo unspecified) returned a melting point of 128 °C.

`CCOC(=O)c1ccc(N(C)Cc2ccc3nc(C)[nH]c(=O)c3c2)s1` registered a melting point above 200 °C.

As to `COc1cc2c(c3c1OC(C)(C)C3)C(c1cccc(NC(=O)CCCCl)c1)=NC(C)(C)C2`, the melting point lay within 146 to 148 °C.

`COc1ccccc1Cc1ccc(N)c(C#N)c1` returned a melting point of 77.5 to 78.5 °C.

As to `ON=C1CC(c2ccccc2)c2ccccc21` (stereo unspecified), the melting point is 123 to 125 °C.

Compound `CCN(CC)c1ccc(-c2cc(-c3ccc(C(=O)O)cc3)ccc2O)cc1C(F)(F)F` gave a melting point of 195 °C.

`CCCCCOc1ccc(CCOc2ccc(/C=C(\OCC)C(=O)O)cc2OC)cc1` had a melting point of 135 °C.

For `O=C(O)CCCCNCc1cc2cc3c(cc2c2cc(OCc4ccccc4)ccc12)OCO3`, the melting point fell in the range of 197 to 199 °C.

On to `O=C(O)CCC(=O)C(=O)Nc1ccccc1`, for which the melting point lay within 192 to 193 °C.

The compound `CC[C@H](C)N1CC(C)(C)[C@@H](Oc2ccc(C#N)c(C(F)(F)F)c2)C1=O` displayed a melting point of 101 to 102 °C.

Take `CC(c1cc(Cl)cc(Cl)c1O)c1cc(F)cc(Cc2cc(Cl)cc(Br)c2O)c1O` (stereo unspecified): the melting point came to 171 °C.

Take `CN(C)c1cc(OC(F)(F)F)cc2sc(N)nc12`: the melting point was determined as 184 °C.

`C=CCN1C(=O)COc2ccc(C3CC(=O)C(C(CC)=NOCC)=C(O)C3)cc21` (stereo unspecified) showed a melting point of 79 to 83 °C.

`CC(C)c1nc2[nH]c(=O)ccc2c(-c2ccc(F)cc2)c1/C=C/C=O`: the melting point turned out to be 261 °C.

Turning to `CC(C)N(CCN1C(=O)C(=O)c2ccc(Cl)cc21)C(C)C`, the melting point lay within 78 to 79 °C.

For `C#CCOc1cc(OCC#C)c2c(=O)cc(-c3ccc(OC)c(OCC#C)c3)oc2c1`, the melting point turned out to be 196 °C.

As to `Cc1c[nH]n(Cc2ccc(Cl)c(Cl)c2)c1=O`, the melting point came out at 156 °C.

Compound `COCCN1C(=O)C(C)(C)C(=O)Nc2ccc(C#N)cc21` yielded a melting point of 247 to 248 °C.

Regarding `COc1ccc(C2(CCN3CCC(O)(c4nc5ccccc5n4Cc4ccc(F)cc4)CC3)CCN(C(=O)c3cc(OC)c(OC)c(OC)c3)C2)cc1OC` (stereo unspecified), the melting point fell in the range of 110 to 120 °C.

Take `Cc1nc2c(cc1Cl)C(=O)OC2=O`: the melting point lay in the range of 140 to 141 °C.

On to `COCc1cnc2nc(N)nc(N)c2n1`, for which the melting point lay within 248 to 251 °C.

Compound `Cc1ccc(C)c(SCCCCCC(=O)O)c1` came in with a melting point of 61 to 62 °C.

In turn, `Cc1nc(N2CCCC2)sc1C(=O)c1ccc(Cl)c([N+](=O)[O-])c1` came in with a melting point of 168 to 171 °C.

`CN1CCN(c2ccc([N+](=O)[O-])c(C(=O)O)c2)CC1` yielded a melting point of 212 °C.

`O=S1CCC(c2ccccc2)(c2ccccc2)CC1` showed a melting point of 122 °C.

In the case of `CCNc1ccc(C(N)=O)cc1[N+](=O)[O-]`, the melting point worked out at 226 °C.

Turning to `CS(=O)(=O)c1ccc(-c2nn(CC#N)c(C(F)(F)F)c2-c2ccc(F)cc2)cc1`, the melting point fell in the range of 192 to 194 °C.

As to `Cc1ccc(-c2ncc(OC3SCC(O)C(O)C3O)cc2F)cn1` (stereo unspecified), the melting point stood at 184 °C.

Consider `COc1ccc(-c2cc(-c3cccc(Br)n3)nc(-c3cccc(Br)n3)c2)cc1`, for which the melting point came out at 205 °C.

For `N#CNC(CSCc1ccccn1)=NCCO`, the melting point was 68 to 69 °C.

`CC(=O)C(C(=O)N(CCN(C)C)c1ccccc1)=C(N)c1ccccc1` registered a melting point of 81 to 83 °C.

`CCOC(=O)c1c(C)nc(CCl)c(C(=O)OCC)c1-c1cccc([N+](=O)[O-])c1` showed a melting point of 76 to 78 °C.

In turn, `CC(=O)Nc1nc2c(s1)CCN(C(=O)OCc1ccccc1)CC2` displayed a melting point of 126 to 128 °C.

Consider `NC(=O)NC1CCC(O)c2ccccc21` (stereo unspecified), for which the melting point is 170 to 176 °C.

In the case of `CC(C)Cn1c(CNC(=O)OC(C)(C)C)c(-c2ccccc2)c2cc(-c3nc(C#N)cs3)ccc2c1=O`, the melting point lay within 209 to 211 °C.

Compound `COc1cc(CCCC2SC(=O)NC2=O)ccc1OCc1coc(/C=C/c2ccccc2)n1` (stereo unspecified) showed a melting point of 154 to 155 °C.

Compound `O=c1nc(-c2cccc(SCc3ccccc3)n2)sc2ccccc12` had a melting point of 227 to 228 °C.

Consider `Cc1nc2c([nH]1)CCCC2=O`, for which the melting point was determined as 229 °C.

For the compound `COC(=O)C(C#N)(Cc1ccc(-c2cccc(C(F)(F)F)c2)cc1)C(c1ccccc1OC)c1cccc2ccccc12` (stereo unspecified), the melting point lay within 202 to 204 °C.

Take `CN(Cc1ccc(=O)n(Cc2ccc(Cl)cc2)c1)c1ccccc1`: the melting point worked out at 106 °C.

Turning to `CC(C)c1nc(CCOC(=O)OCCc2nc(C(C)C)c(Sc3cc(Cl)cc(Cl)c3)n2C)n(C)c1Sc1cc(Cl)cc(Cl)c1`, the melting point is 157 to 159 °C.

Compound `CC1=C(Cc2ccc(C(=O)O)cc2)C(=O)C2C=CC=CC2C1=O` (stereo unspecified) returned a melting point of 206 to 208 °C.

`O=C(NC1CCNCC1)N(CCCN1CCC(Cc2ccccc2)CC1)c1ccccc1` came in with a melting point of 85 to 87 °C.

`CCC(CC)Oc1cc(C)nc(Nc2c(C)cc(C)cc2C)c1C(=O)C#N` returned a melting point of 108 to 110 °C.

`C=CCNC(=O)c1cc(CCc2cc3c(s2)-n2c(C)nnc2CN=C3c2ccccc2Cl)ccc1CC(=O)Nc1cccc(/C=C/c2nc(C3CCC3)cs2)c1` registered a melting point of 127 to 132 °C.

In turn, `CC(=O)OC12Oc3cc(C)ccc3C1(OC(C)=O)C(=O)c1ccccc12` (stereo unspecified) registered a melting point of 167 to 169 °C.

For `CC(=O)Oc1ccc(-c2[nH]c3ccc(Cl)cc3c2-c2ccc(S(C)(=O)=O)cc2)cc1`, the melting point is 248 to 250 °C.

For `Cc1cccc(-c2n[nH]cc2-c2ccc(F)c(-c3ccc4c(c3)CCS4(=O)=O)c2)n1`, the melting point is 107 to 109 °C.

With `CCc1nc2c(N)nc3cc(OCc4ccccc4)ccc3c2s1`, the melting point was 208 to 209 °C.

Compound `O=C(Nc1ccc2cc(CN3CCC(CCO)CC3)cnc2c1)c1ccc(-c2ccc(Cl)cc2)cc1` came in with a melting point of 204 °C.

Compound `CS(=O)(=O)c1ccc(Oc2ccc(C(=O)c3ccccc3)cc2)cc1` gave a melting point of 164 to 165 °C.

On to `OC1CSC(Oc2cccnc2F)C(O)C1O` (stereo unspecified), for which the melting point lay within 85 to 87 °C.

With `COC(=O)c1cccc(-c2nc(-c3cccc(C(F)(F)F)c3)cs2)c1`, the melting point is 105 to 106 °C.

Regarding `CC(=O)COc1ccc(C2CCCCC2)cc1`, the melting point is 58 °C.

Compound `Cc1ccccc1CN1CCN(C(=O)c2ccc(N(CCOC(C)C)C(=O)CCl)cc2)CC1` returned a melting point of 142 to 143 °C.

`CN(C)C(=O)ON=C1COCS1` displayed a melting point of 87.5 to 88 °C.

`O=C(CCCc1ccccc1)NCc1ccc(C(=O)O)cc1`: the melting point was in the range of 178 to 179 °C.

`COCCO[C@@H]1c2ccc3c(nc(C)n3C)c2O[C@H](c2ccccc2)[C@H]1OC(=O)COC` showed a melting point of 200 °C.

Take `Cn1ncnc1COc1nc2c(-c3ccccc3)nncn2c1-c1cccc(Cl)c1`: the melting point is 80 to 84 °C.

As to `c1coc(CCCCCCOc2ccc(C3=NCCO3)cc2)c1`, the melting point worked out at 74 °C.

Take `CCCc1c(COc2ccc(Cc3nnn(Cc4ccc(-c5nnn[nH]5)cc4)n3)cc2)ccc(C(C)=O)c1O`: the melting point was in the range of 86 to 88 °C.

Consider `CC(C)[Si](Oc1ccc([C@H](O)[C@H](C)N2CCC(O)(c3ccccc3)CC2)cc1)(C(C)C)C(C)C` (relative stereo), for which the melting point lay in the range of 148 to 151 °C.

`CCOC(=O)N1C=CC(c2c(-c3ccc(OC)cc3)nc3n2CCC3)C=C1` showed a melting point of 116 to 118 °C.

For `O=C(CCCCC1SCC2NC(=O)NC21)NCCOCCOCCN1C(=O)C=C(Br)C1=O` (stereo unspecified), the melting point was 95 to 98 °C.

`COC(=O)NC(=O)CC1=C(Cc2ccc3c(Br)cccc3c2)C(=O)CCC1` showed a melting point of 128 to 129 °C.

As for `COc1ccc(Oc2c(C)cc([N+](=O)[O-])cc2C)cc1Cc1ccc(F)cc1`, the melting point lay in the range of 105 to 110 °C.

In the case of `CCOC(=O)OCSCC1=C(C(=O)OCC)C(c2cccc([N+](=O)[O-])c2)C(C(=O)OCC)=C(C)N1` (stereo unspecified), the melting point lay in the range of 83 to 85 °C.

For `O[C@H]1[C@H](O)CS[C@H]1n1cnc2c(Cl)nc(Cl)nc21`, the melting point lay within 198 to 200 °C.

Turning to `O=C(O)C1Cc2ccsc2S1(=O)=O` (stereo unspecified), the melting point lay in the range of 189 to 193 °C.

`COc1ccc(C2=C(C(=O)N3CCOCC3)C(=O)c3ccccc32)cc1OC` showed a melting point of 71.5 °C.

The compound `CC(=O)Nc1ccc(S(=O)(=O)NCc2cc3c(ccc4cnn(C[C@H](C)N)c43)o2)cc1` came in with a melting point of 80 to 85 °C.

The compound `COc1cc(Br)ccc1OC(=O)c1ccccc1` came in with a melting point of 73 to 75 °C.

With `O=C(Nc1ccccc1S(=O)(=O)NCCCn1ccnc1)c1cccc(C(F)(F)F)c1`, the melting point is 145 to 147 °C.

`COC(=O)Nc1nc(-c2ccccc2)c(-c2nc3ccccc3c(=O)n2-c2cccc(Cl)c2)s1` yielded a melting point of 230 to 231 °C.

`C=CCOc1ccc2c(C)cc(=O)oc2c1C` showed a melting point of 107 to 108 °C.
